Reference: patent US20240165112A1, “THERAPY FOR THE TREATMENT OF CANCER” (Bristol-Myers Squibb Company, priority 2022, published 2024)

Legend:
[1] = tested on: TNC, ACTA2, PAI-1 transcripts in lung cancer-associated fibroblasts (CAF); assay: TGF-β-induced gene transcription, fibroblast activation markers (RT-PCR); format: cell-based, human
Description: FIGS. 9A-9C illustrates the effect of Compound 1 on Transcriptional Markers of Fibroblast Activation in Lung Cancer Associated Fibroblasts Treated with TGF-β. […] Lung cancer-associated fibroblasts (CAF, black bars) were treated with 10 ng/mL TGF-β after 1-hour pre-incubation with a range of Compound 1 concentrations, and cells were lysed 24 hours later. Indicated gene transcripts were assessed by RT-PCR relative to GAPDH. Data were normalized to expression after TGF-β-treatment in the presence of only DMSO. Data are presented as mean of 3 biological replicates, and error bars indicate standard deviation. The graphs are representative of at least 2 independent experiments. *P<0.05; ** P<0.01, ***P<0.001; ****P<0.0001 by student's t-test. Abbreviations: ACTA2, smooth muscle actin; CAF, cancer associated fibroblasts; DMSO, dimethyl sulfoxide; GAPDH, glyceraldehyde-3-phosphate dehydrogenase; NHLF, normal lung human fibroblasts; PAI-1, plasminogen activator inhibitor 1; RNA, ribonucleic acid; RT-PCR, reverse transcription polymerase chain reaction; […], transforming growth factor beta; TNC, tenascin C.
(§1) Cells were seeded (75,000 NHLF and lung CAF cells) into 12 well plates with RPMI+10% FBS and allowed to adhere overnight at 37° C., 5% CO2. After one day of serum starvation, cells were pre-treated for 1 hour with DMSO or Compound 1 at 30 μM, 10 μM, 3 μM, 1 μM, or 0.3 μM and then stimulated with 10 ng/mL TGF-β. The 24-hour Compound 1 treated samples were harvested for ribonucleic acid (RNA) extraction.
(§2) Cells were directly lysed in Qiagen™ Buffer RLT Plus with 1% 2-Mercaptoethanol added. Total RNA from tumor samples and cell lines was isolated using Qiagen™ AllPrep® DNA/RNA 96 Kit according to manufacturer's protocol. Isolated RNA was analyzed with NanoDrop™ ONE Spectrophotometer for concentration. The RNA integrity was also analyzed on Agilent TapeStation 4200.
(§3) Complimentary deoxyribonucleic acid (cDNA) was prepared by using Invitrogen™ SuperScript™ III First-Strand Synthesis SuperMix for qRT-PCR. Up to 1 μg of RNA was prepared according to manufacturer's protocol, using Applied Biosystems™ Veriti™ 96-well thermal cycler. The reverse transcription (RT) program used for cDNA synthesis: • 1. 25° C., 10 minutes • 2. 50° C., 30 minutes • 3. 85° C., 5 minutes • 4. Add E. Coli RNase H, 37° C., 20 minutes • 5. Hold at 4° C. Quantitative Reverse Transcription Polymerase Chain Reaction (qRT-PCR).
(§4) The cDNA was diluted 1:3 fold in nuclease-free water for quantitative polymerase chain reaction (qPCR) setup. Human and mouse TaqMan™ assays for targeted genes were ordered through Applied Biosystems™. TaqMan™ assay selection was based on manufacturer's recommendation. The qRT-PCR was set up using Applied Biosystems™ TaqMan™ Fast Advanced Master Mix according to manufacturer's protocol. The qRT-PCR was run on QuantStudio™ 12 Flex with fast run mode: • 1. 95° C., 20 seconds • 2. 95° C., 1 second • 3. 60° C., 20 seconds • 4. Repeat steps 2-3, 39 times
(§5) The qPCR data was analyzed, and all cycle threshold (Ct) values were normalized to glyceraldehyde-3-phosphate dehydrogenase (GAPDH) (ΔCt). Analysis was plotted and presented using GraphPad Prism (GraphPad, Version 8.4.1, San Diego, CA).
(§6) The levels of phospho-c-Jun in NHLF and non-small cell lung CAF in response to TGF-β in the presence of DMSO or varying concentrations of Compound 1 were summarized in FIG. 7. Cells were treated with DMSO or Compound 1 for 1 hour prior to treatment with 10 ng/mL TGF-β for an additional 2 hours. Phospho-c-Jun levels were determined by western blot analysis and were normalized to DMSO treated samples. […] The relative expression of fibroblast activation markers in NHLF and lung CAF in response to TGF-β in the presence of DMSO or varying concentrations of Compound 1 were summarized in FIGS. 8A-8C and FIGS. 9A-9C. Cells were treated with DMSO or Compound 1 for 2 hours prior to treatment with 10 ng/mL TGF-β. The RNA expression was assessed 24 hours after TGF-β treatment.

[2] = tested on: TNC, ACTA2, PAI-1 transcripts in normal human lung fibroblasts (NHLF); assay: as above; format: cell-based
Description: Normal human lung fibroblasts (NHLF, black bars) were treated with 10 ng/mL TGF-β after 1 hour pre-incubation with a range of Compound 1 concentrations, and cells were lysed 24 hours later. Indicated gene transcripts were assessed by RT-PCR relative to GAPDH. Data were normalized to expression after TGF-β treatment in the presence of only DMSO. Data are presented as mean of 3 biological replicates, and error bars indicate standard deviation. The graphs are representative of at least 2 independent experiments. *P<0.05; ** P<0.01, ***P<0.001; ****P<0.0001 by student's t-test. Abbreviations: ACTA2, smooth muscle actin; CAF, cancer associated fibroblasts; DMSO, dimethyl sulfoxide; GAPDH, glyceraldehyde-3-phosphate dehydrogenase; NHLF, normal lung human fibroblasts; PAI-1, plasminogen activator inhibitor 1; RNA, ribonucleic acid; RT-PCR, reverse transcription polymerase chain reaction; TGF-β, transforming growth factor beta; TNC, tenascin C.
as §1, §2, §3, §4, §5, §6

[3] = CAF stimulated with TGFβ, 10 μM Compound 1
[4] = CAF, 30 μM Compound 1, 10 ng/mL TGF-β, 24 hours
[5] = NHLF stimulated with TGFβ, 10 μM Compound 1
[6] = NHLF, 30 μM Compound 1, 10 ng/mL TGF-β, 24 hours

SMILES: C[C@@H]1CC[C@@H](Nc2nc(NC(C)(C)C)ncc2C(N)=O)C[C@H]1O [Compound 1, 2-(tert-butylamino)-4-((1R,3R,4R)-3-hydroxy-4-methylcyclohexylamino)-pyrimidine-5-carboxamide]
- PAI-1 reduced relative to DMSO [1, 3]: PAI-1, ACTA2, and TNC were reduced 71%,
- TNC reduced relative to DMSO [1, 3]: 77%
- TNC induction, reduction from peak activation relative to baseline ([1]; CAF, 0.3 μM Compound 1, 10 ng/mL TGF-β, 24 hours): 34%
- PAI-1 induction, reduction from peak activation relative to baseline ([1]; CAF, 1 μM Compound 1, 10 ng/mL TGF-β, 24 hours): 25%
- ACTA2 induction, reduction from peak activation relative to baseline ([1]; CAF, 10 μM Compound 1, 10 ng/mL TGF-β, 24 hours): 71%
- ACTA2 expression [1, 4]: lower than samples in the absence of TGF-β
- PAI-1 induction, reduction from peak activation relative to baseline [1, 4]: 98%
- TNC induction, reduction from peak activation relative to baseline [1, 4]: 97%
- ACTA2 reduced relative to DMSO [2, 5]: 4.1%
- TNC reduced relative to DMSO [2, 5]: 66%
- TNC induction, reduction from peak activation to baseline ([2]; NHLF, 3 μM Compound 1, 10 ng/mL TGF-β, 24 hours): 48%
- PAI-1 induction, reduction from peak activation to baseline ([2]; NHLF, 10 μM Compound 1, 10 ng/mL TGF-β, 24 hours): 20%
- ACTA2 induction, reduction from peak activation to baseline [2, 6]: 95%
- PAI-1 induction, reduction from peak activation relative to baseline [2, 6]: 57%
- TNC expression [2, 6]: lower than samples that never received TGF-β
